According to patent US20090068295A1, “Composition for treating cancer and method of using the same” (Chang Gung University, priority 2007, published 2009):

Columns and labels:
[1] = test system: human liver cancer cell line Sk-Hep-1; test: effect on the cell cycle of Sk-Hep-1; format: cell-based
Protocol: (§1) Please refer to FIG. 4A and FIG. 4B. […] Please further refer to the following Table 1 and Table 2.
As shown in FIG. 4A and Table 1, in the cell cycle of Sk-Hep-1, the percentage of G1, S, and G2 phases are about 43.04%, 30.9%, and 23.75% respectively. When treat the Sk-Hep-1 cells with 10 μM of 5-FU alone, the percentage of G1, S, and G2 phases are about 51.51%, 31.19%, and 17.3% respectively. From the comparison with the control, 5-FU can increase the percentage of G1 phase and reduce the percentage of G2 phase. […] From the results, 5-FU combined with EGCG can effectively interrupt the cell cycle of Sk-Hep-1 cells at G1 phase, and prevent the cell cycle from entering S phase.

P53 protein [2] = test: P53 protein expression of Sk-Hep-1; format: cell-based, human; settings: Sk-Hep-1 cells, compared with control; concentrations not given
Excerpt: (§2) Referring to FIG. 5A and FIG. 5B.

[3] = test system: human liver cancer cell line Hep-G2; test: effect on the cell cycle of Hep-G2; format: cell-based
Protocol: as §1
Furthermore, as shown in FIG. 4B and Table 2, in the cell cycle of Hep-G2, the percentage of G1, S, and G2 phases are about 52.7%, 26.54%, and 20.76% respectively. When treat the Hep-G2 cells with 10 μM of 5-FU alone, the percentage of G1, S, and G2 phases are about 47.04%, 42.68%, and 10.29% respectively. From the comparison with the control, 5-FU can increase the percentage of S phase and reduce the percentage of G1 phase and G2 phase. […] From the results, 5-FU combined with EGCG can effectively interrupt the cell cycle of Hep-G2 cells at G1 phase, and prevent the cell cycle from entering S phase and G2 phase.

[4] = test system: human liver cancer cell line Sk-Hep-1; test: viability of human liver cancer cell line Sk-Hep-1 after treatment; settings: for viability of Sk-Hep-1: after 48 hours
[5] = test system: human leukemia cell line Jurkat T; test: viability of human leukemia cell line Jurkat T; format: cell-based; settings: 5-FU alone
Excerpt: (§3) Please refer to FIG. 6A and FIG. 6B.

P53 protein [6] = test: P53 protein expression of Hep-G2; format: cell-based, human; settings: Hep-G2 cells, compared with control; concentrations not given
Excerpt: as §2
However, treat Hep-G2 with EGCG can reduce the expression of P53 protein to 0.74-fold.

[7] = test system: human leukemia cell line K562; test: viability of human leukemia cell line K562; format: cell-based; settings: 5-FU alone
Excerpt: as §3

Compound: O=c1[nH]cc(F)c(=O)[nH]1 [5-FU, 5-Fluorouracil]
- Cell cycle phase G2 (%) ([1]; 5-FU, 10 μM): 17.30 ± 0.3%
- Cell cycle phase S (%) ([1]; 5-FU, 10 μM): 31.19 ± 1.4%
- expression of P53 protein (P53 protein [2]): 1.64 fold
- Cell cycle phase G2 (%) ([3]; 5-FU, 10 μM): 10.29 ± 2.5%
- Cell cycle phase S (%) ([3]; 5-FU, 10 μM): 42.68 ± 2.4%
- viability at 10 µM ([4]; Homo sapiens, SK-HEP1, 48 h, read-out: viability of Sk-Hep-1): ~75%
- viability of Jurkat T [5]: about 80%
- expression of P53 protein (P53 protein [6]): 1.64 fold
- effect on the viability of K562 [7]: almost no effect

Compound: O=C(O[C@@H]1Cc2c(O)cc(O)cc2O[C@@H]1c1cc(O)c(O)c(O)c1)c1cc(O)c(O)c(O)c1 [EGCG, Epigallocatechin gallate]
- Cell cycle phase G1 (%) ([1]; EGCG, 50 μM): 54.41 ± 5.4%
- Cell cycle phase G2 (%) ([1]; EGCG, 50 μM): 22.09 ± 2.2%
- Cell cycle phase S (%) ([1]; EGCG, 50 μM): 23.51 ± 3.2%
- Cell cycle phase G1 (%) ([1]; EGCG, 100 μM): 56.60 ± 3.8%
- Cell cycle phase G2 (%) ([1]; EGCG, 100 μM): 19.5 ± 0.7%
- Cell cycle phase S (%) ([1]; EGCG, 100 μM): 23.90 ± 3.1%
- Cell cycle phase G1 (%) ([1]; EGCG, 250 μM): 53.92 ± 1.9%
- Cell cycle phase G2 (%) ([1]; EGCG, 250 μM): 17.55 ± 1.7%
- Cell cycle phase S (%) ([1]; EGCG, 250 μM): 28.53 ± 2.3%
- expression of P53 protein (P53 protein [2]): 1.8 fold
- Cell cycle phase G1 (%) ([3]; EGCG, 50 μM): 62.15 ± 2.4%
- Cell cycle phase G2 (%) ([3]; EGCG, 50 μM): 9.33 ± 4.7%
- Cell cycle phase S (%) ([3]; EGCG, 50 μM): 28.52 ± 4.3%
- Cell cycle phase G1 (%) ([3]; EGCG, 100 μM): 62.23 ± 5.7%
- Cell cycle phase G2 (%) ([3]; EGCG, 100 μM): 11.51 ± 4.1%
- Cell cycle phase S (%) ([3]; EGCG, 100 μM): 26.26 ± 3.5%
- Cell cycle phase G1 (%) ([3]; EGCG, 250 μM): 61.83 ± 1.6%
- Cell cycle phase G2 (%) ([3]; EGCG, 250 μM): 9.63 ± 1.7%
- Cell cycle phase S (%) ([3]; EGCG, 250 μM): 28.53 ± 1.3%
- viability of Sk-Hep-1 ([4]; 50 μM of EGCG): about 90%
- viability of Sk-Hep-1 ([4]; 100 μM of EGCG): ~80%
- viability of Sk-Hep-1 ([4]; 250 μM of EGCG): ~60%
- viability of Sk-Hep-1 ([4]; 500 μM of EGCG): ~50%
- expression of P53 protein (P53 protein [6]): 0.74 fold
